Activity calls are given as the source filed them.
Assays:
[1] = molecular target: T1, High affinity choline transporter 1 (Homo sapiens, UniProt Q9GZV3); experiment: CHT inhibitors, dose response, cell-based, 5-point CRC, membrane potential dye (AID 504840); type: functional
T1 sequence (Q9GZV3 whole entry): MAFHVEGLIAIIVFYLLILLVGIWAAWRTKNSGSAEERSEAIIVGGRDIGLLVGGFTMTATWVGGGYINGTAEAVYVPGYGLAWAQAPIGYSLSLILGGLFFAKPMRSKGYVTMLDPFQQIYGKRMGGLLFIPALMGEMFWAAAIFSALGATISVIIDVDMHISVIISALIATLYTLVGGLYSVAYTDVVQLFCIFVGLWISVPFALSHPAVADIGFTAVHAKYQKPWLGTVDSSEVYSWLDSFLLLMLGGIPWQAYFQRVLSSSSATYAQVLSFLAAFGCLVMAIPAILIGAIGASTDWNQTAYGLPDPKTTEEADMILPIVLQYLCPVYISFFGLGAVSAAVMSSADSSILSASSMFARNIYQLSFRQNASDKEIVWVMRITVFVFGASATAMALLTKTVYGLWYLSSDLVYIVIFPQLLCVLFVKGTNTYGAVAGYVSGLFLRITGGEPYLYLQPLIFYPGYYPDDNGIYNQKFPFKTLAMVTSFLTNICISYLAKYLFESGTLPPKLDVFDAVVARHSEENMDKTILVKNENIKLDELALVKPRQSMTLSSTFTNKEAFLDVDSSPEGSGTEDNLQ

[2] = molecular target: T1, High affinity choline transporter 1; experiment: CHT inhibitors, dose response, cell-based, 10-point CRC, membrane potential dye (AID 588401); type: functional;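 also: membrane potential dye fluorescence of choline-evoked depolarization via CHT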
[3] = inhibitors of firefly luciferase expression or activity, dose response, H4 neuroglioma cells, luminescence (AID 1990); type: functional, cell-based
[4] = A Cell Based Secondary Assay To Explore Cytotoxicity of Compounds that Sensitize Mycobacterium Tuberculosis to Beta-Lactam Antibiotics.; type: functional
[5] = Luminescence Cell-Based Dose Response HTS to Identify Inhibitors of 5'UTR Stem-Loop Driven Prion Protein mRNA Translation in H4 Neuroglioblastoma Cells. [Related pubchem assays: 1827 (Project Summary), 1813 (Primary HTS)]; type: functional
[6] = inhibitors of SNCA 5'UTR-driven reporter translation, confirmation, H4 neuroglioma cells, luminescence (AID 1988); type: functional, cell-based
Jurkat = experiment: antigen receptor-induced NF-kB inhibitors, dose response, Jurkat, luciferase reporter, luminescence, B- and T-cell (AID 489004); type: functional, cell-based; settings: Homo sapiens;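 also: NF-kB luciferase reporter Jurkat cells stimulated with PMA plus ionomycin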
[7] = cytotoxicity in HEK-293T NF-kB-Luc cells, dose response, cytotoxicity control for B/T-cell NF-kB inhibitor project, cell-based, uHTS hits (AID 489019); type: functional;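 also: IC50 reflects cytotoxicity as loss of cell viability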
HEK293 = experiment: inhibitors of LMP1-driven NF-kB reporter, dose response, cell-based, HEK293, luciferase, cherry-pick (AID 588343); type: functional; settings: Homo sapiens
[8] = HEK293T cell cytotoxicity, dose response, cytotoxicity control for HIV Vif inhibitor project, cherry-picks (AID 652208); type: functional, cell-based
Vero = Vero cell cytotoxicity, cytotoxicity control for flavivirus capping enzyme inhibitors (AID 588742); type: functional; settings: Chlorocebus sabaeus
Keap1/Nrf2 = Keap1/Nrf2 (Homo sapiens, UniProt Q14145); experiment: Keap1-Nrf2 protein-protein interaction inhibitors, dose response, biochemical, fluorescence polarization, cherry-picked samples (AID 588683)
Sequence of Keap1/Nrf2 (Q16236 whole entry): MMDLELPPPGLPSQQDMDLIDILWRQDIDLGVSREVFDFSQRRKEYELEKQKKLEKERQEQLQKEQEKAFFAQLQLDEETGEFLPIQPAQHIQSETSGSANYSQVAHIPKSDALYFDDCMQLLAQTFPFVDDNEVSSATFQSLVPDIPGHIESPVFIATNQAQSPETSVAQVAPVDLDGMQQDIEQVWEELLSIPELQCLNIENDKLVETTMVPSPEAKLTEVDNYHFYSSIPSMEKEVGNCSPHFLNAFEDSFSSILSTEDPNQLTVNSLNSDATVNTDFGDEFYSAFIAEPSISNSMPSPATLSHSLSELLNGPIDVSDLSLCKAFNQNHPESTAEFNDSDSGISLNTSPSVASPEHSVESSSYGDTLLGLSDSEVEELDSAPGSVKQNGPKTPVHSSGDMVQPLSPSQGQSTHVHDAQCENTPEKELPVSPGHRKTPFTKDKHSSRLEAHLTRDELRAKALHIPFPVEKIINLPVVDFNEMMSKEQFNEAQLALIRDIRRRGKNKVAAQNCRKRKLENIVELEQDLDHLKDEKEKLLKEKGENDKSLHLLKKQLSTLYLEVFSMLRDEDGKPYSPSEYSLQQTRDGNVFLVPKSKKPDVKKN
Sequence of Keap1/Nrf2 (Q14145 whole entry): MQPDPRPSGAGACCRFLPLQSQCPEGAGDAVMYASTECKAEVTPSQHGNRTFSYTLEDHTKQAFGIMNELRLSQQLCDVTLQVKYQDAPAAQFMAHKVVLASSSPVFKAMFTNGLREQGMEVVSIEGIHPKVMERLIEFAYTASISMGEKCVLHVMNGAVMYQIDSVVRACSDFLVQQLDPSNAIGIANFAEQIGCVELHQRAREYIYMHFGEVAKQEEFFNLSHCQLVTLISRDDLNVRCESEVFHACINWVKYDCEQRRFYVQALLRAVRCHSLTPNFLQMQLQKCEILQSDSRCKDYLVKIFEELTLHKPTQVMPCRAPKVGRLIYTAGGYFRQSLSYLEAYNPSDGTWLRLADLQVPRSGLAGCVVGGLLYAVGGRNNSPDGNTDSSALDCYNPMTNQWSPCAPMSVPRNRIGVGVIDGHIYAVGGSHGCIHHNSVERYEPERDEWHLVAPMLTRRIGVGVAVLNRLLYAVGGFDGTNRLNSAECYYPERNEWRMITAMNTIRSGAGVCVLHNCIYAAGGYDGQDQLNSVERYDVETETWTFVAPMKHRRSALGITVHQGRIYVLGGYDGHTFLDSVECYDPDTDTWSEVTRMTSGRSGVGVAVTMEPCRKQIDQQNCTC

Genome polyprotein = Genome polyprotein (dengue virus type 2, UniProt P29990); experiment: Dengue-2 NS5 methyltransferase inhibitors, primary screen, biochemical, confirmation dose response (AID 588689); type: functional
Sequence of Genome polyprotein (P29990 2492-3391 limits assumed): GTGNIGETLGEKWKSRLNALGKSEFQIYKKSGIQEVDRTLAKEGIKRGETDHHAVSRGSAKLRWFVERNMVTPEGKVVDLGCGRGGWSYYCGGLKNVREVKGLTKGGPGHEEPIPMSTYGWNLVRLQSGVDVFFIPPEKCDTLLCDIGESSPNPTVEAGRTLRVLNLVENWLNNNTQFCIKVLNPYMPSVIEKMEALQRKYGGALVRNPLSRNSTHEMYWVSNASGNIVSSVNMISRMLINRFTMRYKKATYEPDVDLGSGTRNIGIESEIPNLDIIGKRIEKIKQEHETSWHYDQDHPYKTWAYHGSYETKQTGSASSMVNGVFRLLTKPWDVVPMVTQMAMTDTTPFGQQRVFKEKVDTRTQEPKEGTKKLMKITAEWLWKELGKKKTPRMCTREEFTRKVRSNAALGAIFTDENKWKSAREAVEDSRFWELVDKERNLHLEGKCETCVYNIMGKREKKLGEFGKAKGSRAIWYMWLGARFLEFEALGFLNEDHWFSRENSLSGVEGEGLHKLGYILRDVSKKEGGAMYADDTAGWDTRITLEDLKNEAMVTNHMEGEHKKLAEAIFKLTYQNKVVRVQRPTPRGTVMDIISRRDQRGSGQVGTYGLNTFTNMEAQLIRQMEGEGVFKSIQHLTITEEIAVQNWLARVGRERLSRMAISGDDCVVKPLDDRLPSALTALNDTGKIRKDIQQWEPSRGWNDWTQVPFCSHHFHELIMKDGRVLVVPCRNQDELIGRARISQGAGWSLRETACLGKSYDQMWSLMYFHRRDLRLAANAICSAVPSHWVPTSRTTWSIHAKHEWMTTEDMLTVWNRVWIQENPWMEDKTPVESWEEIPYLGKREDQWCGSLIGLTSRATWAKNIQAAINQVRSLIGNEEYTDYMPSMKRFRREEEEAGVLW

[9] = molecular target: T2, Polyadenylate-binding protein 1 (Homo sapiens, UniProt P11940); experiment: PABP1 MLLE–PAM2 interaction inhibitors, dose response, miRNA deadenylation inhibitor project, biochemical, fluorescence polarization, Cy5-PAM2 peptide, secondary (AID 602260); type: functional; settings: read-out: IC50_Mean
T2 sequence (P11940 whole entry): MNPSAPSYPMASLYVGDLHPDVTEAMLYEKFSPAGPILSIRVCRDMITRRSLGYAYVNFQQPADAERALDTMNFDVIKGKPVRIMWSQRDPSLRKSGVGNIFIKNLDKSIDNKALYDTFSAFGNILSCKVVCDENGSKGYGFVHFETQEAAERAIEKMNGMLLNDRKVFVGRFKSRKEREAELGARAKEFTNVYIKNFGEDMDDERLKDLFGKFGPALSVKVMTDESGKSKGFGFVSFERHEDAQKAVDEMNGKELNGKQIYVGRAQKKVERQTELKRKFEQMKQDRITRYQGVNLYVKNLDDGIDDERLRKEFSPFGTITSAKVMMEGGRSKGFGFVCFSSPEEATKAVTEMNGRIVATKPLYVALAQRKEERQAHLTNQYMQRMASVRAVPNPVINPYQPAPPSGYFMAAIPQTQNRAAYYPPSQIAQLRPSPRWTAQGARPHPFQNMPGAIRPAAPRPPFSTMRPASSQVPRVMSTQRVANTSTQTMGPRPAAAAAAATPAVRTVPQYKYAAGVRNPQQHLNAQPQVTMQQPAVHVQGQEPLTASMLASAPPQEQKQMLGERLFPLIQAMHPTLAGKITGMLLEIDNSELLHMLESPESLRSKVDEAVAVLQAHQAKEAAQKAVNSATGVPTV

[10] = molecular target: T2, Polyadenylate-binding protein 1; experiment: PABP1 MLLE–PAM2 binding inhibitor potency, dose response, biochemical, fluorescence polarization, FITC-PAM2 peptide (AID 602259); type: functional; settings: read-out: IC50_Mean
[11] = HeLa cell cytotoxicity, dose response, cytotoxicity control for MgcRacGAP inhibitor project (AID 624300); type: functional
Albumin = Albumin (Bos taurus, UniProt P02769); experiment: Counterscreen for inhibitors of T-cell receptor (TCR)-CD3 interaction: Fluorescence-based biochemical high throughput dose response assay to identify inhibitors of T-cell receptor (TCR)-CD3 interaction using a TAMRA-labeled BSA probe.; type: functional
Sequence of Albumin (P02769 whole entry): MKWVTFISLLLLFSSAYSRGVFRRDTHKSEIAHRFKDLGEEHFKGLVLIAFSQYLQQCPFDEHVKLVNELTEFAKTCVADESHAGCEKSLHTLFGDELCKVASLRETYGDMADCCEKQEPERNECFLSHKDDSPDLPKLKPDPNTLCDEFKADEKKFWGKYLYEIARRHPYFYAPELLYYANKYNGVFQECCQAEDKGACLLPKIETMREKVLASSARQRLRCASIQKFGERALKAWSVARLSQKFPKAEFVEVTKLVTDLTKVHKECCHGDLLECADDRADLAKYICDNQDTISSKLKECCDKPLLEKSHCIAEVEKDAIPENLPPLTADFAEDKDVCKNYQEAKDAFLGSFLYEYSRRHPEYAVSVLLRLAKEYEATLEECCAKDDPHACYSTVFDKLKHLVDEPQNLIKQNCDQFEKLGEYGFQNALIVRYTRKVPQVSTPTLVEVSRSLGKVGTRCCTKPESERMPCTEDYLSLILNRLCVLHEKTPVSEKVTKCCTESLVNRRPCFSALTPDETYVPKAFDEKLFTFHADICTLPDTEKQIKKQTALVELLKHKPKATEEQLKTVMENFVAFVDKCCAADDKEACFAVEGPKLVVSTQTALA

[12] = molecular target: T3, Histone-lysine N-methyltransferase NSD2 (Homo sapiens, UniProt O96028); type: biochemical
T3 sequence (O96028 whole entry): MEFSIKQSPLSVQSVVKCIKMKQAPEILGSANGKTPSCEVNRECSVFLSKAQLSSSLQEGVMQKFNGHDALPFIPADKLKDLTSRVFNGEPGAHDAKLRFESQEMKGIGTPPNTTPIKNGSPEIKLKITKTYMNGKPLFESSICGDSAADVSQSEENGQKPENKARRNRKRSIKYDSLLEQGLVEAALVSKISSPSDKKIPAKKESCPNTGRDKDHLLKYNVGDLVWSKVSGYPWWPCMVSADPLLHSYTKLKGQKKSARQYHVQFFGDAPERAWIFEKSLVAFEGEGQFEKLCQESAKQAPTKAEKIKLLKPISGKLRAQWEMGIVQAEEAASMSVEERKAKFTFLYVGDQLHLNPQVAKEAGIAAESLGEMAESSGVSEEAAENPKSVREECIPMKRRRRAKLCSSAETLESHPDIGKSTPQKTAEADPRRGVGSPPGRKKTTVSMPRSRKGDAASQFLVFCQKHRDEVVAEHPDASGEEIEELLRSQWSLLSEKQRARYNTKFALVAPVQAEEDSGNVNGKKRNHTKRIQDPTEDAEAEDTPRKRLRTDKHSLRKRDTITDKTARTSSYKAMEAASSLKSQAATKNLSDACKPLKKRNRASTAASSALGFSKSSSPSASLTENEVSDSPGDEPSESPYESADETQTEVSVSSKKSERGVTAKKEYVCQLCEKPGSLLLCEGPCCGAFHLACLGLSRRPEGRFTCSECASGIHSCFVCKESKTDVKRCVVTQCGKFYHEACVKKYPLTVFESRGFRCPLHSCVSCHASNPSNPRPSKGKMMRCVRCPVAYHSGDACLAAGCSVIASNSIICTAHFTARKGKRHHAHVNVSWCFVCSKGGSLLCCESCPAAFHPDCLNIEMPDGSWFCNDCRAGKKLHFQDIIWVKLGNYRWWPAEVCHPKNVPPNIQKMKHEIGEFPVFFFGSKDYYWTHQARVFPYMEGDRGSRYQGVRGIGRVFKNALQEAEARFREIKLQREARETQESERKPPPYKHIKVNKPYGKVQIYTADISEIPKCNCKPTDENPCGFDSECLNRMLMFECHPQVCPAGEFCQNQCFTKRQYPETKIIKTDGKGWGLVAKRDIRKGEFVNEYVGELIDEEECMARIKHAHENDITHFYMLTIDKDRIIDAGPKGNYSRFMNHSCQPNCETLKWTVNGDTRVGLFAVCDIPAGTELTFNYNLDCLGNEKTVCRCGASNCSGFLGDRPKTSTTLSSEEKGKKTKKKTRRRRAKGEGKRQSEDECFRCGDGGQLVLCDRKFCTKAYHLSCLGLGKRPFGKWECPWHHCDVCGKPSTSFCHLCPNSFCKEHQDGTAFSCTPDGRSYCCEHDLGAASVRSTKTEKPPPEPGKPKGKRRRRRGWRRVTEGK

Hexokinase-1 = molecular target: T4, Hexokinase-1 (Homo sapiens, UniProt P19367); experiment: SAR analysis of small molecule inhibitors of hexokinase domain containing I (HKDC1) in the hexokinase 1 selectivity assay. [Related pubchem assays (depositor defined):AID493160, AID493190]; type: functional
T4 sequence (P19367 whole entry): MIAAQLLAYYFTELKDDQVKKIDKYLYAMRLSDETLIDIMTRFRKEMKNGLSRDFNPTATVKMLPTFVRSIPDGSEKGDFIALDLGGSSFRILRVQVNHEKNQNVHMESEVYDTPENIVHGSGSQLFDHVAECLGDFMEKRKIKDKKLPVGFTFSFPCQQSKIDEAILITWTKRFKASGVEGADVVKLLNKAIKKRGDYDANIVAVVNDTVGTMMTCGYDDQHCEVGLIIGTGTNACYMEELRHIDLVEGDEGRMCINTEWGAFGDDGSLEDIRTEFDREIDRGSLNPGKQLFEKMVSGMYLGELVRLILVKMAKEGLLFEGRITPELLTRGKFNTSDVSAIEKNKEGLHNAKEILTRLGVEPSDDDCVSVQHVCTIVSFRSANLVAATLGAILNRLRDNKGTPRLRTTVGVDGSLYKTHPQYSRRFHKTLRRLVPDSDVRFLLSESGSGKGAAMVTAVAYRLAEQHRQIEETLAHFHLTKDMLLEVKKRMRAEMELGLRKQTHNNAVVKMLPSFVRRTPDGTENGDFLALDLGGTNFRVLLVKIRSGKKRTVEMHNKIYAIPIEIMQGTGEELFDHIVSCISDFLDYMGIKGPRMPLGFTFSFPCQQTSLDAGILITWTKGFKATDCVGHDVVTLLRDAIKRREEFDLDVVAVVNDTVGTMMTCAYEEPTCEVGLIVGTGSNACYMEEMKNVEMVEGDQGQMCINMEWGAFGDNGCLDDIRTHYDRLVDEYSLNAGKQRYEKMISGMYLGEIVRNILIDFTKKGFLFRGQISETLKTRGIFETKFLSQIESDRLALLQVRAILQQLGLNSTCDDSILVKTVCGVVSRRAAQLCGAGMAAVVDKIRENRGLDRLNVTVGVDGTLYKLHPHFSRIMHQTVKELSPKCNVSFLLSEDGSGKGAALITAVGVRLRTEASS

Hexokinase HKDC1 = molecular target: T5, Hexokinase HKDC1 (Homo sapiens, UniProt Q2TB90); experiment: SAR analysis of small molecule inhibitors of hexokinase domain containing I (HKDC1). [Related pubchem assays (depositor defined):AID493160, AID493190]; type: functional
T5 sequence (Q2TB90 whole entry): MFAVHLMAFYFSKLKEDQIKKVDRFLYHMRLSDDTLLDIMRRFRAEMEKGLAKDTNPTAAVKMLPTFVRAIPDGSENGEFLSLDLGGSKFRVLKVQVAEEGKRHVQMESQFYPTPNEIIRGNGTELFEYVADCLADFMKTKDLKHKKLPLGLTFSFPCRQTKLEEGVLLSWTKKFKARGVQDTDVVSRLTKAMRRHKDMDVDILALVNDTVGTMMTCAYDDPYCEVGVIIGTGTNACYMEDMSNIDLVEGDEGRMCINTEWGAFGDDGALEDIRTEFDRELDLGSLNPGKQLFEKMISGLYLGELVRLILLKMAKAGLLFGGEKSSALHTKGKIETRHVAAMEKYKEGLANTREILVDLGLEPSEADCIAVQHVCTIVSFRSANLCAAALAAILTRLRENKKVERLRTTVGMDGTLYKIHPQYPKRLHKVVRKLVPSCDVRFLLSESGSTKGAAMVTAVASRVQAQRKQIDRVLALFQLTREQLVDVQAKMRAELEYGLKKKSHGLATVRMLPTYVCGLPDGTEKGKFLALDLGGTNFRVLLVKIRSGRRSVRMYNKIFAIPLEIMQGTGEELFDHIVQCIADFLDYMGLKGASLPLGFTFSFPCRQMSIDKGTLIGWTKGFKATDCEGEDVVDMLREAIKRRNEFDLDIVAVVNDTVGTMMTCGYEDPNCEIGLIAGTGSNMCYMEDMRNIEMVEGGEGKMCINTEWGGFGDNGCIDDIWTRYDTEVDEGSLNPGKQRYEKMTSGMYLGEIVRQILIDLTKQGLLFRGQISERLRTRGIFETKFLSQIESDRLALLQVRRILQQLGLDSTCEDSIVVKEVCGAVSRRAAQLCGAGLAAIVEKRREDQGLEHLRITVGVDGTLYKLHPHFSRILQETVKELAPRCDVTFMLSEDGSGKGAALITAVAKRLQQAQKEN

CC1=NOC(=O)/C1=C/c1ccc(O)c(Cl)c1
IC50 [1]: 6.99 µM (active) | IC50 [2]: 3.57 µM (active)

CCc1cc2c(Sc3nc4ccccc4s3)ncnc2s1
EC50 [3]: > 120 µM (not active) | CC50 [4]: 30.2 µM (active) | EC50 [5]: 16.3 µM (active) | EC50 [6]: 3.87 µM (active) | IC50 (Jurkat): < 0.16 µM (active) | IC50 [7]: > 80 µM (inactive) | AC50 (HEK293): 4.9 µM (active) | AC50 [8]: > 52 µM (inactive)

O=C1C(Cl)=C(N2CCN(CCO)CC2)C(=O)c2c(O)ccc(O)c21
CC50 (Vero): 2.85 µM (active) | AC50 (Keap1/Nrf2): > 52 µM (inactive) | IC50 (Genome polyprotein): 4.58 µM (active) | IC50 [9]: > 66 µM (inactive) | IC50 [10]: 60.6 µM (inactive) | CC50 [11]: 12.9 µM (active) | IC50 (Albumin): 29.1 µM (inactive) | AC50 [12]: 4.44 µM (active)

COc1ccc(Cn2c(/C=C/c3cccnc3)nc3ccccc3c2=O)cc1
IC50 (Hexokinase-1): > 80 µM (inactive) | IC50 (Hexokinase HKDC1): > 80 µM (inactive)

O=C(Nc1cccc(C(F)(F)F)c1)c1cccc(NC(=O)c2ccccn2)c1
IC50 (Hexokinase-1): > 80 µM (inactive) | IC50 (Hexokinase HKDC1): > 80 µM (inactive)

O=c1c2ccccc2nc(/C=C/c2ccc(F)cc2)n1Cc1ccccc1
IC50 (Hexokinase-1): > 80 µM (inactive) | IC50 (Hexokinase HKDC1): > 80 µM (inactive)
